Laboratory results as given in ChEMBL document CHEMBL1201862, “PubChem BioAssay data set” (2004).
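Values below derive from 48-hour exposures of cells grown in 96-well plates, with endpoints linearly interpolated between the two concentrations bracketing the appropriate inhibition level. Here, GI50 denotes the concentration required for 50% inhibition of growth.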 The source made the active and inactive calls. Rule as the data show it: active = GI50 up to about 1.1 µM and inactive = higher.

How the values were obtained:
Experiment in all cases: NCI tumour cell line growth inhibition, 48 h
[1] = tested on: 786-0
[2] = tested on: A549
[3] = tested on: COLO 205
[4] = tested on: HCT-116
[5] = tested on: HL-60
[6] = tested on: IGROV-1
[7] = tested on: NCI-H23
[8] = tested on: NCI-H522
[9] = tested on: OVCAR-8
[10] = tested on: SF-295
[11] = tested on: SK-MEL-28
[12] = tested on: SK-MEL-2
[13] = tested on: SK-MEL-5
[14] = tested on: SW-620
[15] = tested on: TK-10
[16] = tested on: LOX IMVI

Measured: GI50

O=S1(=O)OCCOS(=O)(=O)C1Cl
inactive: [1] > 100 µM | [2] > 100 µM | [3] > 100 µM | [4] > 100 µM | [5] > 100 µM | [6] > 100 µM | [7] > 100 µM | [8] > 100 µM | [9] > 100 µM | [10] > 100 µM | [11] > 100 µM | [12] > 100 µM | [13] > 100 µM | [14] > 100 µM | [15] > 100 µM

CCc1ccccc1NC(=O)c1cccc([N+](=O)[O-])c1O
inactive: [1] 71.6 µM | [2] 24.8 µM | [3] 17.2 µM | [4] 24.2 µM | [5] 30.6 µM | [6] 23 µM | [16] 16.3 µM | [7] 18.7 µM | [8] 21 µM | [9] 46.7 µM | [10] 5.18 µM | [11] 28.2 µM | [13] 8.89 µM | [14] 38.4 µM

NC1=NS(=O)(=O)Nc2nc(-c3ccc([N+](=O)[O-])o3)[nH]c21
inactive: [1] 15.6 µM | [2] > 100 µM | [3] > 10 µM | [4] 4.58 µM | [5] 1.9 µM | [6] 17.2 µM | [16] 15.9 µM | [7] 19.6 µM | [8] 17.4 µM | [9] 25.1 µM | [10] 16.3 µM | [11] 16 µM | [12] 16.5 µM | [13] 18.3 µM | [14] 13.8 µM | [15] 19 µM

NNC(=O)N/N=C(/CC1(O)C(=O)Nc2ccc(Br)cc21)c1ccccc1 (stereo unspecified)
inactive: [1] 57.3 µM | [2] 50 µM | [4] 27.9 µM | [5] 21.9 µM | [6] 41.1 µM | [16] 18.1 µM | [7] 29 µM | [8] 18.8 µM | [10] 38.6 µM | [11] 28.2 µM | [12] 34.4 µM | [14] 50 µM | [15] 55.6 µM

O=C1OC(=O)C2C3C=CC(C12)C1C2C=CC2C31 (stereo unspecified)
inactive: [1] > 100 µM | [2] > 100 µM | [3] > 100 µM | [4] > 100 µM | [5] > 100 µM | [6] > 100 µM | [16] > 100 µM | [7] > 100 µM | [8] > 100 µM | [9] > 100 µM | [10] > 100 µM | [11] > 100 µM | [12] > 100 µM | [14] > 100 µM | [15] > 100 µM

O=c1cc(-c2ccccc2)oc2cc(OCCCOc3ccc4c(=O)cc(-c5ccccc5)oc4c3)ccc12
inactive: [1] > 100 µM | [2] > 100 µM | [3] > 100 µM | [4] > 100 µM | [5] > 100 µM | [6] > 100 µM | [16] > 100 µM | [7] > 100 µM | [8] > 100 µM | [9] > 100 µM | [10] > 100 µM | [11] > 100 µM | [12] > 100 µM | [13] > 100 µM | [14] > 100 µM | [15] > 100 µM

Cc1nc(-c2cccnc2)sc1C(=O)/C=C/c1cccc([N+](=O)[O-])c1
inactive: [1] > 100 µM | [2] > 100 µM | [3] > 100 µM | [5] > 100 µM | [6] > 100 µM | [16] > 100 µM | [7] > 100 µM | [8] > 100 µM | [9] > 100 µM | [10] > 100 µM | [11] > 100 µM | [12] > 100 µM | [13] > 100 µM | [14] > 100 µM | [15] > 100 µM

C=C1C(OC(C)=O)CC(OC(C)=O)C2(C)C(OC(C)=O)C(OC(C)=O)C3=C(C)C(OC(=O)/C=C/c4ccccc4)CC(C(OC(C)=O)C12)C3(C)C (stereo unspecified)
inactive: [1] 30.8 µM | [2] > 100 µM | [3] > 100 µM | [4] > 100 µM | [5] > 100 µM | [6] > 100 µM | [16] > 100 µM | [8] 68.1 µM | [9] 46.3 µM | [10] 23.9 µM | [12] 55.6 µM | [13] > 100 µM | [14] > 100 µM | [15] > 100 µM

CCCN(CCCCC(NC(C)=O)C(=O)NCc1ccccc1)C(=O)NC (stereo unspecified)
inactive: [1] > 100 µM | [2] > 100 µM | [3] > 100 µM | [4] > 100 µM | [6] > 100 µM | [16] > 100 µM | [7] > 100 µM | [8] > 100 µM | [9] > 100 µM | [10] > 100 µM | [11] > 100 µM | [12] > 100 µM | [13] > 100 µM | [14] > 100 µM | [15] > 100 µM

COc1cc(OC)c([C@@H]2OC(=O)C3C2C(=O)O[C@H]3c2cc(OC)c(OC)cc2OC)cc1OC (stereo partly specified)
inactive: [1] > 100 µM | [2] > 100 µM | [3] > 100 µM | [4] > 100 µM | [5] 88.9 µM | [6] > 10 µM | [7] > 100 µM | [9] > 100 µM | [10] > 100 µM | [11] > 100 µM | [12] > 100 µM | [14] > 10 µM

CC1(C)OC(=O)C(c2ccsc2)C(=O)O1
inactive: [1] > 100 µM | [2] > 100 µM | [3] > 100 µM | [4] > 100 µM | [5] > 100 µM | [16] > 100 µM | [7] > 100 µM | [8] > 100 µM | [9] > 100 µM | [10] > 100 µM | [11] > 100 µM | [12] > 100 µM | [13] > 100 µM | [14] > 100 µM | [15] > 100 µM

CCO/N=[N+](\[O-])N(CC)CC
inactive: [2] > 100 µM | [4] > 100 µM | [5] > 100 µM | [6] > 100 µM | [16] > 100 µM | [7] > 100 µM | [8] > 100 µM | [9] > 100 µM | [10] > 100 µM | [11] > 100 µM | [12] > 100 µM | [13] > 100 µM | [14] > 100 µM | [15] > 100 µM

N#CC(c1nc2ccccc2nc1Cl)S(=O)(=O)c1ccccc1 (stereo unspecified)
inactive: [1] > 100 µM | [2] > 100 µM | [3] > 100 µM | [4] > 100 µM | [5] > 100 µM | [16] 43.5 µM | [7] 37.5 µM | [8] 30.7 µM | [9] 74 µM | [11] > 100 µM | [12] 97.1 µM | [13] > 100 µM | [14] 69.3 µM | [15] > 100 µM

Cc1cccc(-n2c(=S)[nH]c3c(sc(=O)n3-c3ccccc3C)c2=O)c1
inactive: [1] > 100 µM | [2] > 100 µM | [3] > 100 µM | [4] > 100 µM | [5] > 100 µM | [6] > 100 µM | [7] > 100 µM | [8] > 100 µM | [9] > 100 µM | [10] > 100 µM | [11] > 100 µM | [12] > 100 µM | [13] > 100 µM | [14] > 100 µM

C=C1C(=O)OC2/C=C(\C)CC(O)/C=C(/CO)CC(OC(=O)/C(C)=C/C)C12 (stereo unspecified)
inactive: [2] 155 µM | [3] 19.3 µM | [4] 29.6 µM | [5] 13.3 µM | [6] 37.8 µM | [16] 12.3 µM | [7] 27.7 µM | [8] 13 µM | [9] 24 µM | [10] 163 µM | [11] 14.8 µM | [12] 51.9 µM | [13] 14.8 µM | [14] 17.6 µM

C=CCCC(OCOCCOC)c1cc(C)c(O[Si](C)(C)C(C)(C)C)c(C)c1 (stereo unspecified)
inactive: [1] 14.9 µM | [2] 16.4 µM | [3] 16.7 µM | [5] 3.28 µM | [6] 19.9 µM | [16] 13 µM | [7] 14.5 µM | [8] 11.8 µM | [9] 19.3 µM | [10] 17.3 µM | [11] 19.5 µM | [12] 15.8 µM | [13] 10.1 µM | [14] 16 µM | [15] 22 µM

CN(C)Cc1cc(/C(=C(\C#N)c2ccccc2)c2ccc(O)cc2)ccc1O
inactive: [1] 15 µM | [2] 24.6 µM | [3] 14.5 µM | [4] 10.2 µM | [6] 30.5 µM | [16] 12.1 µM | [7] 19.1 µM | [8] 12.9 µM | [9] 19.1 µM | [10] 18.4 µM | [11] 13.6 µM | [12] 17.3 µM | [13] 14.5 µM | [14] 21 µM | [15] 23 µM

COC(=O)C(C#N)C1NC(=O)c2ccccc21 (stereo unspecified)
inactive: [1] > 100 µM | [2] > 100 µM | [3] > 100 µM | [4] > 100 µM | [5] > 100 µM | [6] > 100 µM | [16] > 100 µM | [7] > 100 µM | [8] > 100 µM | [9] > 100 µM | [10] > 100 µM | [11] > 100 µM | [13] > 100 µM | [14] > 100 µM | [15] > 100 µM
